Reference: EP4786487A1, “PEPTIDE” (Peptidream Inc, priority 2023, dated 2025)
Starred links: 1 amine or outer side, 2 acyl side, 3 side chain; linkers in the order of their positions; H or OH if unused. Positions of bridges follow the written chain, without caps; N, C: chain ends. Non-standard residues stand in square brackets, D forms with d. Residues, ends and D or L forms follow the SMILES beside them. *: point of attachment. Phe(3-OCH2COOH) = N[C@@H](Cc1cccc(OCC(=O)O)c1)C(=O)O; Phe(4-COOH) = N[C@@H](Cc1ccc(C(=O)O)cc1)C(=O)O; Trp(7-aza) = N[C@@H](Cc1c[nH]c2ncccc12)C(=O)O; Piperazinyl(4-CH2COOH) = O=C(O)CN1CCN(*)CC1; Gly(N(CH2)3COOH) = O=C(O)CCCNCC(=O)O; X1 = CCCCCCC[C@H](N[*:1])C(=O)[*:2]; NMeF = CN[C@@H](Cc1ccccc1)C(=O)O; 4Pal = N[C@@H](Cc1ccncc1)C(=O)O; hSer = N[C@@H](CCO)C(=O)O; NMeA = CN[C@@H](C)C(=O)O; Sar = CNCC(=O)O; X17 = CCCCC*; nBu = CCCC*

Assays:
Assay type in all cases: cell-based
GDF-11 = molecular target: T1, GDF-11 (Homo sapiens, UniProt O95390); test: Reporter gene assay for myostatin signaling in HepG2 cell line, Evaluation Procedure (1), GDF-11 inhibition; details: Method A: GDF-11 10 ng/mL; read-out: IC50 (Luciferase) GDF-11 HepG2
T1 construct: purchased R&D systems 1958-GD-G8/CF
T1 sequence (O95390 299-407): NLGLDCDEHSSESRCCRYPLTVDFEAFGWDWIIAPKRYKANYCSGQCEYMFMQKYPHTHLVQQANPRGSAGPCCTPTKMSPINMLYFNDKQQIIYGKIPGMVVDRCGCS
Summary of the method: (§1)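 HepG2 cells transfected with pGL3(CAGA)12-luciferase reporter, serum-starved in 0.1% BSA medium, then stimulated with myostatin or GDF-11 plus 4-fold peptide dilutions (0.006–100 nmol/L for myostatin, 0.12–2000 nmol/L for GDF-11) for 20–24 h at 37 °C. Luminescence read with One-Glo; IC50 calculated.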

Myostatin [1] = molecular target: T2, Myostatin (Homo sapiens, UniProt O14793); test: Reporter gene assay for myostatin signaling in HepG2 cell line, Evaluation Procedure (1), myostatin inhibition; details: Method A: Myostatin 10 ng/mL; read-out: IC50 (Luciferase) Myostatin HepG2
T2 construct: active myostatin (also called mature myostatin) is a homodimer consisting of two C-terminal growth factor domains; purchased R&D systems 788-G8/CF
T2 sequence (O14793 267-375): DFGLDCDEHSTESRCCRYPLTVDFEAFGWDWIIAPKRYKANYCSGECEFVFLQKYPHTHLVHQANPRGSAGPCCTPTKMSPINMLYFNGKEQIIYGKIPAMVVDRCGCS
Summary of the method: as §1

Myostatin [2] = test: as above; details: Method A; GDF-11 IC50 versus Myostatin IC50
Summary of the method: as §1

Compound	IC50 (GDF-11)	IC50 (Myostatin [1])	Selectivity (Myostatin [2])
CCCCCOC[C@@H]1NC(=O)[C@H](Cc2ccccc2)N(C)C(=O)[C@H](CCCNC(=N)N)NC(=O)[C@H](Cc2ccc(C(=O)O)cc2)NC(=O)[C@H](Cc2ccncc2)NC(=O)CN(C)C(=O)[C@H]([C@@H](C)CC)NC(=O)[C@H](Cc2ccccc2)N(C)C(=O)[C@H](Cc2ccc(O)cc2)NC(=O)[C@H](Cc2c[nH]c3ccccc23)NC(=O)[C@H](C)NC(=O)CN(CCCC(=O)O)C(=O)CSC[C@H](C(=O)O)NC(=O)[C@H](Cc2ccccc2)N(C)C(=O)[C@H](C)N(C)C1=O [Myostatin_99_v226] ({CH2CO}-[Gly(N(CH2)3COOH)]AWY[NMeF]I[Sar][4Pal][Phe(4-COOH)]R[NMeF]S(X17)[NMeA][NMeF][dC]-OH; thioether N-15)	3990 nM	10.2 nM	391
CCCCOCC[C@@H]1NC(=O)[C@H](Cc2ccccc2)N(C)C(=O)[C@H](CCCNC(=N)N)NC(=O)[C@H](Cc2ccc(C(=O)O)cc2)NC(=O)[C@H](Cc2ccncc2)NC(=O)CN(C)C(=O)[C@H]([C@@H](C)CC)NC(=O)[C@H](Cc2ccccc2)N(C)C(=O)[C@H](Cc2ccc(O)cc2)NC(=O)[C@H](Cc2c[nH]c3ccccc23)NC(=O)[C@H](C)NC(=O)CN(CCCC(=O)O)C(=O)CSC[C@H](C(=O)O)NC(=O)[C@H](Cc2ccccc2)N(C)C(=O)[C@H](C)N(C)C1=O [Myostatin_99_v227] ({CH2CO}-[Gly(N(CH2)3COOH)]AWY[NMeF]I[Sar][4Pal][Phe(4-COOH)]R[NMeF][hSer](nBu)[NMeA][NMeF][dC]-OH; thioether N-15)	683 nM	20.8 nM	33

More lines, main results first:

IC50 (GDF-11)	IC50 (Myostatin [1])	Compound	Selectivity (Myostatin [2])
696 nM	3 nM	CCCCCCC[C@@H]1NC(=O)[C@H](Cc2ccccc2)N(C)C(=O)[C@H](CCCNC(=N)N)NC(=O)[C@H](Cc2ccc(C(=O)O)cc2)NC(=O)[C@H](Cc2cccc(OCC(=O)O)c2)NC(=O)CN(C)C(=O)[C@H]([C@@H](C)CC)NC(=O)[C@H](Cc2ccccc2)N(C)C(=O)[C@H](Cc2ccc(O)cc2)NC(=O)[C@H](Cc2c[nH]c3ccccc23)NC(=O)[C@H](C)NC(=O)[C@H](CC(N)=O)NC(=O)CSC[C@H](C(=O)O)NC(=O)[C@H](Cc2ccccc2)N(C)C(=O)[C@H](C)N(C)C1=O [Myostatin_99_v217] ({CH2CO}-NAWY[NMeF]I[Sar][Phe(3-OCH2COOH)][Phe(4-COOH)]R[NMeF][X1][NMeA][NMeF][dC]-OH; thioether N-15)	232
313 nM	2.7 nM	CCCCCCC[C@@H]1NC(=O)[C@H](Cc2ccccc2)N(C)C(=O)[C@H](CCCNC(=N)N)NC(=O)[C@H](Cc2ccc(O)cc2)NC(=O)[C@H](Cc2cccc(OCC(=O)O)c2)NC(=O)CN(C)C(=O)[C@H]([C@@H](C)CC)NC(=O)[C@H](Cc2ccccc2)N(C)C(=O)[C@H](Cc2ccc(O)cc2)NC(=O)[C@H](Cc2c[nH]c3ncccc23)NC(=O)[C@@H](CCC(=O)O)NC(=O)[C@H](C)NC(=O)CSC[C@H](C(=O)O)NC(=O)[C@H](Cc2ccccc2)N(C)C(=O)[C@H](C)N(C)C1=O [Myostatin_99_v219] ({CH2CO}-A[dE][Trp(7-aza)]Y[NMeF]I[Sar][Phe(3-OCH2COOH)]YR[NMeF][X1][NMeA][NMeF][dC]-OH; thioether N-15)	116
72 nM	0.9 nM	CCCCCCC[C@@H]1NC(=O)[C@H](Cc2ccccc2)N(C)C(=O)[C@H](CCCNC(=N)N)NC(=O)[C@H](Cc2ccc(C(=O)O)cc2)NC(=O)[C@H](Cc2cccc(OCC(=O)O)c2)NC(=O)CN(C)C(=O)[C@H]([C@@H](C)CC)NC(=O)[C@H](Cc2ccccc2)N(C)C(=O)[C@H](Cc2ccc(O)cc2)NC(=O)[C@H](Cc2c[nH]c3ccccc23)NC(=O)[C@H](C)NC(=O)[C@H](C)NC(=O)CSC[C@H](C(=O)N2CCN(CC(=O)O)CC2)NC(=O)[C@H](Cc2ccccc2)N(C)C(=O)[C@H](C)N(C)C1=O [Myostatin_99_v221] ({CH2CO}-AAWY[NMeF]I[Sar][Phe(3-OCH2COOH)][Phe(4-COOH)]R[NMeF][X1][NMeA][NMeF][dC]-{Piperazinyl(4-CH2COOH)}; thioether N-15)	80
